{
  "source": "paper PMC6712885",
  "about": "“Improved homology modeling of the human & rat EP4 prostanoid receptors” (BMC Molecular and Cell Biology, 2019)",
  "key": {"Rat EP4 Receptor [1]": {"target": "T1, Rat EP4 Receptor (Rattus norvegicus, UniProt P43114)", "T1 construct": "expressed in transfected cells; host or cells: HEK293T/17", "T1 sequence (P43114 whole entry)": "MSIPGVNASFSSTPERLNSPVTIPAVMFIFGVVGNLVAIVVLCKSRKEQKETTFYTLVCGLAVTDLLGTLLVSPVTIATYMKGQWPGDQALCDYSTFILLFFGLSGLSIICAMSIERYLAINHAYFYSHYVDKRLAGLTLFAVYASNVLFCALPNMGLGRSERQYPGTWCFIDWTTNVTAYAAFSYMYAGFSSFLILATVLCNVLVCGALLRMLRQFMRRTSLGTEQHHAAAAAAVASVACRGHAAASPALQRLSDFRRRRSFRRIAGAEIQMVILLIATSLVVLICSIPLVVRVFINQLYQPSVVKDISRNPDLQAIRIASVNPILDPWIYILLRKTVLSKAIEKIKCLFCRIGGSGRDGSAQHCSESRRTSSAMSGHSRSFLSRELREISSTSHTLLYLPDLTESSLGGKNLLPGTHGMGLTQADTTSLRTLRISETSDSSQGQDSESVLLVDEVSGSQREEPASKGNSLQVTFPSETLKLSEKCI", "design": "method as in PMID 29636218", "settings": "reported within cited reference; cited from earlier work"}, "hEP4 receptor [2]": {"target": "T2, hEP4 receptor (Homo sapiens, UniProt P35408)", "T2 sequence (P35408 whole entry)": "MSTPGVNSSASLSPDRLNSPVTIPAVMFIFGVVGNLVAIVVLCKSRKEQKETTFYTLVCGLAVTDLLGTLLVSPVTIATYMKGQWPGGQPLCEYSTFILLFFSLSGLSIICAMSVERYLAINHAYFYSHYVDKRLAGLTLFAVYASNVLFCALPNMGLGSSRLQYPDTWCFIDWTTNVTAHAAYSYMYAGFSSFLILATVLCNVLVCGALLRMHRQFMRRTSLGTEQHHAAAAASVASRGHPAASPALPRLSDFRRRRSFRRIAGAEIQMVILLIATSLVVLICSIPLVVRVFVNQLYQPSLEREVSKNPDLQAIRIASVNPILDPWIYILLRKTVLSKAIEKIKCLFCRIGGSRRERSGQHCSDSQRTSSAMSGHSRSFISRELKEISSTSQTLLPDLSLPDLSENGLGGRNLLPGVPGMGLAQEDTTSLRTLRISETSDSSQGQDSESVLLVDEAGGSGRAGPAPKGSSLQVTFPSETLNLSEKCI", "design": "expressed in transfected cells; host or cells: HEK293T/17", "settings": "reported within cited reference; cited from earlier work"}, "Rat EP4 Receptor [3]": {"target": "T1, Rat EP4 Receptor", "assay": "EP4 receptor functional activation, cAMP ELISA in transfected HEK293T/17 cells", "format": "cell-based", "protocol": "(§1) Human and rat EP4 receptors were expressed in HEK293T/17 cells separately by reverse transfection on 96-well plates with optimized amounts of cDNA expression constructs immobilized on the surface. Activation of EP4 receptor in this cell line was measured as an increase in cAMP levels using an ELISA kit (Cayman Chemical, Ann Arbor MI). In short, the transfection plates were seeded with 50,000–80,000 cells/well in reduced serum medium containing 0.5% FBS and incubated overnight at 37 °C with 5% CO2. Before stimulation with test compounds, media was aspirated from the wells and replaced with reduced serum media containing 0.5 mM 3-isobutyl 1-methylxanthine (IBMX). Compound dilution series were prepared in the same IBMX containing media at 2X final concentration and applied to the wells in equal volume. Stimulation media were aspirated from the plates after 30 min incubation with test compounds, and the plates with cells were placed on dry ice and then put into − 80 °C freezer for > 2 h. Cell lysates were prepared on thawed plates by adding 200 μl/well ice-cold ELISA buffer with 0.05% Tween-20 followed by titration. The cell lysates were then transferred to a polypropylene plate and clarified by centrifugation at 1000×g for 15 min at 4 °C. Supernatant was transferred into a pre-coated mouse Anti-Rabbit IgG ELISA plate together with serial dilutions of cAMP for a standard curve in triplicate. cAMP-acetylcholinesterase conjugate (cAMP tracer) was added, followed by cAMP EIA antiserum. Plates were incubated overnight with shaking. After washing 5 times in washing buffer, Ellman’s reagent was added to the well and shake for 90 min under cover before measuring absorbance at 405 nm on a plate reader."}, "hEP4 receptor [4]": {"target": "T2, hEP4 receptor", "assay": "Radioligand ([H^3]-PGE2) competition binding, hEP4 membranes of HEK293 cells", "design": "expressed in transfected cells; host or cells: HEK293", "settings": "Human EP4 Receptor; displacement of 0.5 nM [H^3]-PGE2, Cheng Prusoff", "protocol": "(§2) Radioligand binding experiments were carried out versus the hEP4 and rEP4 receptors. […] We also implemented the rEP4 receptor binding studies. Equilibrium competition binding assays were conducted to determine the inhibition constants (Ki) for ligand interactions with EP4 receptors sourced from membranes (160,000×g) of HEK293 cells overexpressing recombinant hEP4 or rEP4 receptors. […] Assays were performed in 10 mM 2-(N-morpholino) ethanesulphonic acid (MES) buffer containing 1 mM EDTA and 10 mM MnCl2, pH 6.0, during 120 min at room temperature. Ki was calculated using the Cheng Prusoff equation where Ki = IC50/(1 […] L/Kd)."}, "hEP4 receptor [5]": {"target": "T2, hEP4 receptor", "assay": "cell-based", "format": "cell-based", "design": "expressed in transfected cells; host or cells: HEK293T/17", "protocol": "as §1"}, "rEP4 receptor": {"target": "T3, rEP4 receptor (Rattus norvegicus, UniProt P43114)", "T3 construct": "expressed in transfected cells; host or cells: HEK293", "T3 sequence (P43114 whole entry)": "as the sequence (P43114 whole entry) above", "assay": "Radioligand ([H^3]-PGE2) competition binding, rEP4 membranes of HEK293 cells", "protocol": "as §2"}, "hEP4 receptor [6]": {"target": "T2, hEP4 receptor", "design": "expressed in transfected cells; host or cells: HEK293T/17", "settings": "reported within cited reference; cited from earlier work", "remark": "listed apart in the source"}, "[7]": {"settings": "Human EP4 Receptor, cAMP response assay, value ± spread (n), read-out: EC50"}, "[8]": {"settings": "Rat EP4 Receptor, displacement of 0.5 nM [H^3]-PGE2, Cheng Prusoff, read-out: Ki"}},
  "note": "Where “and” joins values, the source holds several entries; their conditions need not be identical. Equal entries are not always repeated. Where two headings read alike, the source gives them in different places.",
  "data": [
    {"smiles": "CCCCC(C)(O)C/C=C/[C@H]1[C@H](O)CC(=O)[C@@H]1CCCCCCC(=O)OC", "note": "(mixture of isomers) [Misoprostol]", "values": [
      {"measurement": "Ki", "setting": "Rat EP4 Receptor [1]", "value": 26300, "unit": "nM"},
      {"measurement": "Ki", "setting": "hEP4 receptor [2]", "value": 4340, "unit": "nM"}
    ]},
    {"smiles": "CCCCC[C@H](O)/C=C/[C@H]1CCC(=O)N1CCCCCCC(=O)O", "note": "[8-aza-11-deoxy-PGE1]", "values": [
      {"measurement": "EC50", "setting": "Rat EP4 Receptor [3]", "value": "2.64 ± 0.62", "unit": "nM"},
      {"measurement": "Ki", "setting": "hEP4 receptor [4]", "value": 1.7, "unit": "nM"},
      {"measurement": "EC50", "setting": "hEP4 receptor [5]; [7]", "value": "1.77 ± 0.32", "unit": "nM"}
    ]},
    {"smiles": "CCCCC[C@H](O)/C=C/[C@H]1CCC(=O)[C@@H]1CCCCCCC(=O)O", "note": "[11-deoxy-PGE1]", "values": [
      {"measurement": "Ki", "setting": "rEP4 receptor; [8]", "value": 0.21, "unit": "nM"},
      {"measurement": "EC50", "setting": "Rat EP4 Receptor [3]", "value": "1.13 ± 0.15", "unit": "nM"},
      {"measurement": "Ki", "setting": "hEP4 receptor [4]", "value": 0.13, "unit": "nM"},
      {"measurement": "EC50", "setting": "hEP4 receptor [5]; [7]", "value": "0.79 ± 0.19", "unit": "nM"}
    ]},
    {"smiles": "CCCCC[C@H](O)/C=C/[C@H]1CCC(=O)[C@@H]1C/C=C\\CCCC(=O)O", "note": "[11-deoxy-PGE2]", "values": [
      {"measurement": "Ki", "setting": "rEP4 receptor; [8]", "value": 0.42, "unit": "nM"},
      {"measurement": "EC50", "setting": "Rat EP4 Receptor [3]", "value": "1.32 ± 0.24", "unit": "nM"},
      {"measurement": "Ki", "setting": "hEP4 receptor [4]", "value": 0.23, "unit": "nM"},
      {"measurement": "EC50", "setting": "hEP4 receptor [5]; [7]", "value": "0.66 ± 0.11", "unit": "nM"}
    ]},
    {"smiles": "Cc1cc(Cl)ccc1-c1ccc([C@H](O)/C=C/[C@H]2CCC(=O)N2CCCCCCC(=O)O)cc1", "note": "[CAY10684]", "values": [
      {"measurement": "Ki", "setting": "rEP4 receptor; [8]", "value": 0.057, "unit": "nM"},
      {"measurement": "EC50", "setting": "Rat EP4 Receptor [3]", "value": "0.16 ± 0.06", "unit": "nM"},
      {"measurement": "Ki", "setting": "hEP4 receptor [4]", "value": 0.061, "unit": "nM"},
      {"measurement": "EC50", "setting": "hEP4 receptor [5]; [7]", "value": "0.18 ± 0.1", "unit": "nM"}
    ]},
    {"smiles": "CCOc1c2c(c(OCC)c3ccccc13)C(=O)N(c1ccc(CC(=O)O)cc1)C2", "note": "[CCL17464,2]", "values": [
      {"measurement": "Ki", "setting": "hEP4 receptor [6]", "value": 19.9, "unit": "nM"}
    ]},
    {"smiles": "CCCCCCOc1c2c(c(OCCCCCC)c3ccccc13)C(=O)N(c1ccc(CC(=O)O)cc1)C2", "note": "[CCL17464,19]", "values": [
      {"measurement": "Ki", "setting": "hEP4 receptor [6]", "value": "> 6310", "unit": "nM"}
    ]},
    {"smiles": "CCCCC[C@H](O)/C=C/[C@H]1[C@H](O)CC(=O)[C@@H]1CCCCCCC(=O)O", "note": "[PGE1, Prostaglandin E1]", "values": [
      {"measurement": "Ki", "setting": "hEP4 receptor [4]", "value": 0.13, "unit": "nM"},
      {"measurement": "EC50", "setting": "hEP4 receptor [5]", "value": "0.42 ± 0.72", "unit": "nM"}
    ]},
    {"smiles": "CCCCC[C@H](O)/C=C/[C@H]1[C@H](O)CC(=O)[C@@H]1C/C=C\\CCCC(=O)O", "note": "[PGE2, prostaglandin E2]", "values": [
      {"measurement": "Ki", "setting": "rEP4 receptor", "value": 0.19, "unit": "nM"}
    ]},
    {"smiles": "COCc1cccc(C[C@H](O)/C=C/[C@H]2[C@H](O)CC(=O)[C@@H]2CCSCCCC(=O)O)c1", "note": "[Rivenprost (free Acid)]", "values": [
      {"measurement": "Ki", "setting": "rEP4 receptor; [8]", "value": 0.35, "unit": "nM"},
      {"measurement": "EC50", "setting": "Rat EP4 Receptor [3]", "value": "1.16 ± 0.29", "unit": "nM"},
      {"measurement": "Ki", "setting": "hEP4 receptor [4]", "value": 0.37, "unit": "nM"},
      {"measurement": "EC50", "setting": "hEP4 receptor [5]; [7]", "value": "0.142 nM and 0.14 nM"}
    ]},
    {"smiles": "CS(=O)(=O)NC(=O)CCC/C=C\\C[C@H]1C(=O)C[C@@H](O)[C@@H]1/C=C/[C@@H](O)COc1ccccc1", "note": "[Sulprostone]", "values": [
      {"measurement": "Ki", "setting": "Rat EP4 Receptor [1]", "value": 43600, "unit": "nM"},
      {"measurement": "Ki", "setting": "hEP4 receptor [2]", "value": 3310, "unit": "nM"}
    ]}
  ]
}
